Target: T1, TcAkt (T. cruzi Akt-like kinase), PH domain (Trypanosoma cruzi, UniProt Q4D6D3)
T1 construct: gene Tc00.1047053509047.110; TcAkt-PH (aa 1–105), C-terminal 6xHis-tag
Assay: NMR 1H-15N HSQC chemical shift perturbation titration; hetNOE
Assay type: binding

T1 sequence (Q4D6D3 entry or part of it): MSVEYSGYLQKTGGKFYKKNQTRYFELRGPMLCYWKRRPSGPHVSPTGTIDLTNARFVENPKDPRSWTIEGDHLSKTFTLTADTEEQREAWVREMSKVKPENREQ

Structure (SMILES): O=P(O)(O)O[C@H]1[C@H](O)[C@@H](OP(=O)(O)O)[C@H](OP(=O)(O)O)[C@@H](OP(=O)(O)O)[C@H]1O [Ins(1,3,4,5)P4]
- Kd: 40 ± 14 µM

— article PMC11063076, “Structural investigation of Trypanosoma cruzi Akt-like kinase as drug target against Chagas disease” (Scientific Reports, 2024)
